Measurements as given in patent US10195196B2, “1,4-disubstituted pyridazine analogs there of and methods for treating SMN-deficiency-related conditions” (NOVARTIS AG, priority 2012, dated 2019).

Test system: SMN protein
Test: cellular SMN ELISA (SMN protein elevation)
Format: cell-based
Conditions: ELISA condition 2: compound concentration 100 pM-10 uM, myoblast cell line from SMNdelta7 mouse model, 24 hours treatment; for SMN activity Fold: fold activation over DMSO control
In short: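 Readout is fold SMN elevation versus DMSO plus EC50, measured by anti-SMN capture ELISA with 450 nm absorbance. Lysates came from a myoblast line of the SMNdelta7 mouse model after 24 h compound exposure, with dose ranges of 20 nM–10 μM (condition 1) or 100 pM–10 μM (condition 2).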

Row | Structure (SMILES) | EC50 [nM] | SMN activity Fold [Fold]
1 | CN(c1ccc(-c2c(O)cc(-c3ccn(C)c(=O)c3)cc2F)nn1)C1CC(C)(C)NC(C)(C)C1 [Example 40-3, 4-(3-fluoro-5-hydroxy-4-(6-(methyl(2,2,6,6-tetramethylpiperidin-4-yl)amino)pyridazin-3-yl)phenyl)-1-methylpyridin-2(1H)-one] | 11 | 3.03
2 | CN(c1ccc(-c2c(O)cc(-c3ccc(=O)n(C)c3)cc2F)nn1)C1CC(C)(C)NC(C)(C)C1 [Example 40-4, 5-(3-fluoro-5-hydroxy-4-(6-(methyl(2,2,6,6-tetramethylpiperidin-4-yl)amino)pyridazin-3-yl)phenyl)-1-methylpyridin-2(1H)-one] | 15 | 2.14
3 | CC1(C)CC(Oc2ccc(-c3c(O)cc(-c4cn[nH]c4)cc3F)nn2)CC(C)(C)N1 [Example 40-5, 3-fluoro-5-(1H-pyrazol-4-yl)-2-(6-((2,2,6,6-tetramethylpiperidin-4-yl)oxy)pyridazin-3-yl)phenol] | 17 | 3.59
4 | CN(c1ccc(-c2c(O)cc(Cl)cc2F)nn1)C1CC(C)(C)NC(C)(C)C1 [Example 40-6, 5-chloro-3-fluoro-2-(6-(methyl(2,2,6,6-tetramethylpiperidin-4-yl)amino)pyridazin-3-yl)phenol] | 208 | 2.16
5 | CN(c1ccc(-c2c(O)cc(-c3cn[nH]c3)cc2F)nn1)C1CC(C)(C)NC(C)(C)C1 [Example 40-7, 3-fluoro-2-(6-(methyl(2,2,6,6-tetramethylpiperidin-4-yl)amino)pyridazin-3-yl)-5-(1H-pyrazol-4-yl)phenol] | 4 | 2.80
6 | CN(c1ccc(-c2c(O)cc(-c3cnn(C)c3)cc2F)nn1)C1CC(C)(C)NC(C)(C)C1 [Example 40-8, 3-fluoro-2-(6-(methyl(2,2,6,6-tetramethylpiperidin-4-yl)amino)pyridazin-3-yl)-5-(1-methyl-1H-pyrazol-4-yl)phenol] | 16 | 3.18
7 | COc1cncc(-c2ccc(-c3ccc(N(C)C4CC(C)(C)NC(C)(C)C4)nn3)c(O)c2)c1 [Example 41-1, 5-(5-methoxypyridin-3-yl)-2-(6-(methyl(2,2,6,6-tetramethylpiperidin-4-yl)amino)pyridazin-3-yl)phenol] | 125 | 2.78
8 | CN(c1ccc(-c2ccc(-c3ccc(O)nc3)cc2O)nn1)C1CC(C)(C)NC(C)(C)C1 [Example 41-2] | 50 | 2.68
9 | CN(c1ccc(-c2ccc(-c3ccnc(O)c3)cc2O)nn1)C1CC(C)(C)NC(C)(C)C1 [Example 41-3] | 66 | 3.10
10 | COc1ccc(-c2ccc(-c3ccc(N(C)C4CC(C)(C)NC(C)(C)C4)nn3)c(O)c2)cn1 [Example 41-4, 5-(6-methoxypyridin-3-yl)-2-(6-(methyl(2,2,6,6-tetramethylpiperidin-4-yl)amino)pyridazin-3-yl)phenol] | 80 | 3.29
11 | CN(c1ccc(-c2ccc(-c3cnc(O)c(C(F)(F)F)c3)cc2O)nn1)C1CC(C)(C)NC(C)(C)C1 [Example 41-5, 5-(3-hydroxy-4-(6-(methyl(2,2,6,6-tetramethylpiperidin-4-yl)amino)pyridazin-3-yl)phenyl)-3-(trifluoromethyl)pyridin-2-ol] | 175 | 2.88
12 | CN(c1ccc(-c2ccc(-c3ccc(=O)n(C)c3)cc2O)nn1)C1CC(C)(C)NC(C)(C)C1 [Example 41-6, 5-(3-hydroxy-4-(6-(methyl(2,2,6,6-tetramethylpiperidin-4-yl)amino)pyridazin-3-yl)phenyl)-1-methylpyridin-2(1H)-one] | 10 | 2.67
13 | CN(c1ccc(-c2ccc(-c3ccn(C)c(=O)c3)cc2O)nn1)C1CC(C)(C)NC(C)(C)C1 [Example 41-7, 4-(3-hydroxy-4-(6-(methyl(2,2,6,6-tetramethylpiperidin-4-yl)amino)pyridazin-3-yl)phenyl)-1-methylpyridin-2(1H)-one] | 7 | 2.87
14 | COc1cc(-c2ccc(-c3ccc(N(C)C4CC(C)(C)NC(C)(C)C4)nn3)c(O)c2)ccn1 [Example 41-8, 5-(2-methoxypyridin-4-yl)-2-(6-(methyl(2,2,6,6-tetramethylpiperidin-4-yl)amino)pyridazin-3-yl)phenol] | 62 | 3.18
15 | CC1(C)CC(Oc2ccc(-c3ccc(-c4ccnc(O)c4)cc3O)nn2)CC(C)(C)N1 [Example 41-9, 4-(3-hydroxy-4-(6-((2,2,6,6-tetramethylpiperidin-4-yl)oxy)pyridazin-3-yl)phenyl)pyridin-2-ol] | 72 | 4.2
16 | CN(C)c1ccc(-c2ccc(-c3ccc(N(C)C4CC(C)(C)NC(C)(C)C4)nn3)c(O)c2)cn1 [Example 41-10, 5-(6-(dimethylamino)pyridin-3-yl)-2-(6-(methyl(2,2,6,6-tetramethylpiperidin-4-yl)amino)pyridazin-3-yl)phenol] | 59 | 2.80
17 | Cn1ccc(-c2ccc(-c3ccc(OC4CC(C)(C)NC(C)(C)C4)nn3)c(O)c2)cc1=O [Example 41-11, 4-(3-hydroxy-4-(6-((2,2,6,6-tetramethylpiperidin-4-yl)oxy)pyridazin-3-yl)phenyl)-1-methylpyridin-2(1H)-one] | 12 | 2.78
18 | CN(c1ccc(-c2ccc(-c3cncnc3)cc2O)nn1)C1CC(C)(C)NC(C)(C)C1 [Example 41-12, 2-(6-(methyl(2,2,6,6-tetramethylpiperidin-4-yl)amino)pyridazin-3-yl)-5-(pyrimidin-5-yl)phenol] | 103 | 2.92
19 | CN(c1ccc(-c2ccc(-c3cncc(O)c3)cc2O)nn1)C1CC(C)(C)NC(C)(C)C1 [Example 41-13, 5-(3-hydroxy-4-(6-(methyl(2,2,6,6-tetramethylpiperidin-4-yl)amino)pyridazin-3-yl)phenyl)pyridin-3-ol] | 308 | 3.50
20 | CN(c1ccc(-c2ccc(-c3ccn(C4CC4)c(=O)c3)cc2O)nn1)C1CC(C)(C)NC(C)(C)C1 [Example 41-14, 1-cyclopropyl-4-(3-hydroxy-4-(6-(methyl(2,2,6,6-tetramethylpiperidin-4-yl)amino)pyridazin-3-yl)phenyl)pyridin-2(1H)-one] | 84 | 3.21
21 | CN(c1ccc(-c2ccc(C3=CCNCC3)cc2O)nn1)C1CC(C)(C)NC(C)(C)C1 [Example 41-15, 2-(6-(methyl(2,2,6,6-tetramethylpiperidin-4-yl)amino)pyridazin-3-yl)-5-(1,2,3,6-tetrahydropyridin-4-yl)phenol] | 145 | 2.56
22 | CN(c1ccc(-c2ccc(C3=CCCC3)cc2O)nn1)C1CC(C)(C)NC(C)(C)C1 [Example 41-16, 5-(cyclopent-1-en-1-yl)-2-(6-(methyl(2,2,6,6-tetramethylpiperidin-4-yl)amino)pyridazin-3-yl)phenol] | 62 | 2.30
23 | CN(c1ccc(-c2ccc(C3=CCOCC3)cc2O)nn1)C1CC(C)(C)NC(C)(C)C1 [Example 41-17, 5-(3,6-dihydro-2H-pyran-4-yl)-2-(6-(methyl(2,2,6,6-tetramethylpiperidin-4-yl)amino)pyridazin-3-yl)phenol] | 170 | 2.88
24 | CN(c1ccc(-c2ccc(-c3ccn4cncc4c3)cc2O)nn1)C1CC(C)(C)NC(C)(C)C1 [Example 41-18, 5-(imidazo[1,5-a]pyridin-7-yl)-2-(6-(methyl(2,2,6,6-tetramethylpiperidin-4-yl)amino)pyridazin-3-yl)phenol] | 17 | 2.44
25 | CN(c1ccc(-c2ccc(-c3ccn4ccnc4c3)cc2O)nn1)C1CC(C)(C)NC(C)(C)C1 [Example 41-19, 5-(imidazo[1,2-a]pyridin-7-yl)-2-(6-(methyl(2,2,6,6-tetramethylpiperidin-4-yl)amino)pyridazin-3-yl)phenol] | 17 | 2.62
26 | Cc1cc(-c2ccc(-c3ccc(N(C)C4CC(C)(C)NC(C)(C)C4)nn3)c(O)c2)ccn1 [Example 41-20, 2-(6-(methyl(2,2,6,6-tetramethylpiperidin-4-yl)amino)pyridazin-3-yl)-5-(2-methylpyridin-4-yl)phenol] | 32 | 2.63
27 | CN(c1ccc(-c2ccc(-c3ncc[nH]3)cc2O)nn1)C1CC(C)(C)NC(C)(C)C1 [Example 42-1, 5-(1H-imidazol-2-yl)-2-(6-(methyl(2,2,6,6-tetramethylpiperidin-4-yl)amino)pyridazin-3-yl)phenol] | 117 | 2.28
28 | CN(c1ccc(-c2ccc(-c3c[nH]cn3)cc2O)nn1)C1CC(C)(C)NC(C)(C)C1 [Example 42-2, 5-(1H-imidazol-4-yl)-2-(6-(methyl(2,2,6,6-tetramethylpiperidin-4-yl)amino)pyridazin-3-yl)phenol] | 26 | 2.06
29 | CN(c1ccc(-c2ccc(-c3cnc4cnccn34)cc2O)nn1)C1CC(C)(C)NC(C)(C)C1 [Example 42-3, 5-(imidazo[1,2-a]pyrazin-3-yl)-2-(6-(methyl(2,2,6,6-tetramethylpiperidin-4-yl)amino)pyridazin-3-yl)phenol] | 99 | 2.92
30 | CN(c1ccc(-c2ccc(-c3cnc4n3CCNC4)cc2O)nn1)C1CC(C)(C)NC(C)(C)C1 [Example 42-4, 2-(6-(methyl(2,2,6,6-tetramethylpiperidin-4-yl)amino)pyridazin-3-yl)-5-(5,6,7,8-tetrahydroimidazo[1,2-a]pyrazin-3-yl)phenol] | 853 | 2.41
